According to ChEMBL document CHEMBL4428135, “Varying Chirality Across Nicotinic Acetylcholine Receptor Subtypes: Selective Binding of Quinuclidine Triazole Compounds” (ACS Med Chem Lett, 2016):
The source made the active and inactive calls. The rule behind the calls is not given here.

Legend:
[1] = target: T1, Neuronal acetylcholine receptor; alpha4/beta2 (Homo sapiens, UniProt P17787+P43681); experiment: Displacement of [3H]epibatidine from human alpha4beta2 nAChR transfected in HEK293 cell membranes after 120 mins by liquid scintillation counting
[2] = target: T2, Neuronal acetylcholine receptor subunit alpha-7 (Homo sapiens, UniProt P36544); experiment: Displacement of [3H]MLA from human alpha7 nAChR transfected in human SH-SY5Y cell membranes after 120 mins by liquid scintillation counting
[3] = target: Acetylcholine receptor subunit alpha (Homo sapiens) (UniProt P02708); experiment: Displacement of [125I]alpha-bungarotoxin from human N-muscle type nAChR alpha1 expressed in human RD cells at 1 uM; format: cell-based
[4] = target: Serotonin 3 (5-HT3) receptor (Homo sapiens) (UniProt P46098+A5X5Y0+O95264+Q70Z44+Q8WXA8); experiment: Displacement of [3H]BRL-43694 from human recombinant 5-HT3 receptor expressed in CHO cells at 100 nM; format: cell-based
[5] = target: T3, Neuronal acetylcholine receptor; alpha3/beta4 (Homo sapiens, UniProt P30926+P32297); experiment: Displacement of [3H]epibatidine from human alpha3beta4 nAChR transfected in HEK293 cell membranes after 120 mins by liquid scintillation counting
[6] = organism: Homo sapiens; experiment: Selectivity index, reciprocal of ratio of Ki for human alpha3beta4 nAChR transfected in HEK293 cells to Ki for human alpha4beta2 nAChR transfected in HEK293 cells; format: cell-based
[7] = target: T3, Neuronal acetylcholine receptor; alpha3/beta4; experiment: Antagonist activity at human alpha3beta4 nAChR expressed in HEK293 cells assessed as rediution in epibatidine-induced intracellular calcium levels at 10 uM; format: cell-based
[8] = target: T2, Neuronal acetylcholine receptor subunit alpha-7; experiment: Agonist activity at human alpha7 nAChR expressed in human SH-SY5Y cells assessed as increase in intracellular calcium levels at 10 uM; format: cell-based
[9] = organism: Homo sapiens; experiment: Selectivity index, reciprocal of ratio of Ki for alpha7 nAChR transfected in human SH-SY5Y cells to KI for human alpha4beta2 nAChR transfected in HEK293 cells; format: cell-based
[10] = target: T2, Neuronal acetylcholine receptor subunit alpha-7; experiment: Displacement of [3H] epibatidine from alpha7 nAChR (unknown origin) expressed in HEK293 cells; format: cell-based
[11] = target: T1, Neuronal acetylcholine receptor; alpha4/beta2; experiment: Displacement of [3H] epibatidine from alpha4beta2 nAChR (unknown origin) expressed in HEK293 cells; format: cell-based
[12] = target: T3, Neuronal acetylcholine receptor; alpha3/beta4; experiment: Displacement of [3H] epibatidine from alpha3beta4 nAChR (unknown origin) expressed in HEK293 cells; format: cell-based
[13] = organism: Homo sapiens; experiment: Selectivity index, reciprocal of ratio of Ki for human alpha7 nAChR transfected in human SH-SY5Y cells to Ki for human alpha3beta4 nAChR transfected in HEK293 cells; format: cell-based
[14] = target: T3, Neuronal acetylcholine receptor; alpha3/beta4; experiment: Agonist activity at human alpha3beta4 nAChR expressed in HEK293 cells assessed as increase in intracellular calcium levels at 10 uM; format: cell-based

Chain of Acetylcholine receptor subunit alpha (Homo sapiens) (P02708 whole entry): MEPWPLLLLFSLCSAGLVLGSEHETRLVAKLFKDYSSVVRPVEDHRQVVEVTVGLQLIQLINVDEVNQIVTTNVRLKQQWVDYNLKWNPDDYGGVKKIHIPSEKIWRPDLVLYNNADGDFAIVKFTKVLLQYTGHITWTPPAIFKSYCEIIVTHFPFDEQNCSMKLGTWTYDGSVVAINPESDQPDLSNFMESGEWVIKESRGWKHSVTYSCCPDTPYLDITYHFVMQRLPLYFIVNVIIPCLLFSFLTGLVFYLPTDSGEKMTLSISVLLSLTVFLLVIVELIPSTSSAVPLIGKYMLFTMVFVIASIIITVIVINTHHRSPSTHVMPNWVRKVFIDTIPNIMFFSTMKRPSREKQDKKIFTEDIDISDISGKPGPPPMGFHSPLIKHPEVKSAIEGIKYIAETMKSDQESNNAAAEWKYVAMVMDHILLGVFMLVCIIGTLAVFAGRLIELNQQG
T3 sequence (P30926 whole entry): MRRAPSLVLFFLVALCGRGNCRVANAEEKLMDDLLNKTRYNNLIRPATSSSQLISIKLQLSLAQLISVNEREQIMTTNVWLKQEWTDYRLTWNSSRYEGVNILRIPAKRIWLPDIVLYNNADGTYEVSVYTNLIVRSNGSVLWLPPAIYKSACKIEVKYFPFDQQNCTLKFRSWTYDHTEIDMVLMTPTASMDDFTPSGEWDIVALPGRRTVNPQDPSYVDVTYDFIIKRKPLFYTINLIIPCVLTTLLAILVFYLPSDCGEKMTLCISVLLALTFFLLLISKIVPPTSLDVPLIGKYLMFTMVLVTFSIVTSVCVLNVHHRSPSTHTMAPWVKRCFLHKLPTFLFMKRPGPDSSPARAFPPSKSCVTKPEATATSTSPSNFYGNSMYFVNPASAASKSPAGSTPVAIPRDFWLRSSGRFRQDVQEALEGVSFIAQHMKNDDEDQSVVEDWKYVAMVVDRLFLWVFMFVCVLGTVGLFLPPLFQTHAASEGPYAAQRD
T3 sequence (P32297 whole entry): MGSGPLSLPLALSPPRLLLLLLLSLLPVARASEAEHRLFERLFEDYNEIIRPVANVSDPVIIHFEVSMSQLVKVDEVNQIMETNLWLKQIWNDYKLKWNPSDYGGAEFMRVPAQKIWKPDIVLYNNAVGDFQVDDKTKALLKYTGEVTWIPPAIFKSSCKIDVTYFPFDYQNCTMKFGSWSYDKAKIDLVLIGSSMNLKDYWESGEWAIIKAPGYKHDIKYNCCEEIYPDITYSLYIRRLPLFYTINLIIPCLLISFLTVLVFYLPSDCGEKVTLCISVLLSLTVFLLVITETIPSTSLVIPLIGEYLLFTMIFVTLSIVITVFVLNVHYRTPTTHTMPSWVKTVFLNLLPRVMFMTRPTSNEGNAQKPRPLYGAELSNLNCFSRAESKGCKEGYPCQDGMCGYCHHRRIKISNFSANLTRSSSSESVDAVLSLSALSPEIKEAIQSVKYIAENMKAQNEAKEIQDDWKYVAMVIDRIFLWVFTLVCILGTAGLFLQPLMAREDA
T2 sequence (P36544 whole entry): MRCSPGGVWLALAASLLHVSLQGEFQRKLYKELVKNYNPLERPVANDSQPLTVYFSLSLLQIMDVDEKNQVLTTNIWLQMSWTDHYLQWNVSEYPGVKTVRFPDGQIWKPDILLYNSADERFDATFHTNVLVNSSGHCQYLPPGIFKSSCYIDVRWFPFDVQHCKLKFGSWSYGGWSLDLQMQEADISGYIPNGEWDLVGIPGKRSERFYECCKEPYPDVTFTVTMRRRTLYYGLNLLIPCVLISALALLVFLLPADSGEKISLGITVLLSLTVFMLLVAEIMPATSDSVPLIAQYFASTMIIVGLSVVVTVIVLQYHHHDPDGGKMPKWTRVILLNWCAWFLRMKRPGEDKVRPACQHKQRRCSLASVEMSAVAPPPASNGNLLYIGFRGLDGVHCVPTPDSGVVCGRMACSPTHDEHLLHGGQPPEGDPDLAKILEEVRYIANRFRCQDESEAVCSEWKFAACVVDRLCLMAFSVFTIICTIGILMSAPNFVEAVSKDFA
T1 sequence (P17787 whole entry): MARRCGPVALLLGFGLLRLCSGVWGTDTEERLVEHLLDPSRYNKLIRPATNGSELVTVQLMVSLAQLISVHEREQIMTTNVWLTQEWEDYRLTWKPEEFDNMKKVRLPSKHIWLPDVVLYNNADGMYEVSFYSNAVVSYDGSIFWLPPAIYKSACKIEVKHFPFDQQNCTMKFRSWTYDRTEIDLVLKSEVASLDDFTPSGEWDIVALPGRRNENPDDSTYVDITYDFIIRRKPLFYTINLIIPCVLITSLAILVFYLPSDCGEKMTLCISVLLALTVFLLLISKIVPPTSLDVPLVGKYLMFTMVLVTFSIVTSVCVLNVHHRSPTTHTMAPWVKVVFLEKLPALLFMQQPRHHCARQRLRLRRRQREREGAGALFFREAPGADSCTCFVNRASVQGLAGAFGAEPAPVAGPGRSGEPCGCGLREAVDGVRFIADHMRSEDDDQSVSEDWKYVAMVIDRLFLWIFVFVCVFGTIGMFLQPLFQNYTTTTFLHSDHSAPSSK
T1 sequence (P43681 whole entry): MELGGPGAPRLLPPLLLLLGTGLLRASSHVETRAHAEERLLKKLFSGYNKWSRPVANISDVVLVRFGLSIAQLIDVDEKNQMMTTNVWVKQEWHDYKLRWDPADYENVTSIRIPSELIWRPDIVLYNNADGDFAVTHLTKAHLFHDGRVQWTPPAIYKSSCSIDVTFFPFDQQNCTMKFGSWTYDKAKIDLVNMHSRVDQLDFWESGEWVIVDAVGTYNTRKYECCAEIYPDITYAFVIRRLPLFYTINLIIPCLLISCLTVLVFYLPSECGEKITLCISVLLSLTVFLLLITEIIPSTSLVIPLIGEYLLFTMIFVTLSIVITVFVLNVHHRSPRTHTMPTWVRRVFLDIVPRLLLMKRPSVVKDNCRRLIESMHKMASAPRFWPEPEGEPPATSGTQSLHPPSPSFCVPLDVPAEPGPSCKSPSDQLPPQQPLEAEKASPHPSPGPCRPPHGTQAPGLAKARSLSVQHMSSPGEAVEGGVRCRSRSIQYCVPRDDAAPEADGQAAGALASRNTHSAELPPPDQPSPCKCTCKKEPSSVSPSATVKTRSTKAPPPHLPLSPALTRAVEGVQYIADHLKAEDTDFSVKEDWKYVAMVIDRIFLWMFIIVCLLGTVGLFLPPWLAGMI

`Fc1cccc(-c2cn([C@@H]3CN4CCC3CC4)nn2)c1` showed a Ki [1] of 519 nM, a Ki [2] of 660 nM and an inhibition [3] of 2 to 12%. For the same molecule, the inhibition [4] was “inactive”, the Ki [5] was 2.25 nM and the Ratio [6] was 231. For the same molecule, the inhibition [7] was “Active” and the Activity [8] was “Active”.
In the case of `Fc1cccc(-c2cn(C3CN4CCC3CC4)nn2)c1` (racemic), the Ki [1] is reported as 748 nM, the Ki [2] is reported as 133 nM and the Ki [5] is reported as 5.24 nM. The Ratio [6] was 143 and the Ratio [9] was 5.6.
`Fc1ccc(COc2cccc(-c3cn([C@@H]4CN5CCC4CC5)nn3)c2)cc1` gave a Ki [1] of 537 nM, a Ki [2] of 149 nM and an inhibition [3] of 2 to 12%. The inhibition [4] was “Active”, the Ki [5] was 7.17 nM and the Ratio [6] was 75. It also gave a Ratio [9] of 3.6.
In the case of `FC(F)(F)c1ccc2c(c1)[C@@H]1CNC[C@H]2C1`, the Ki [10] is reported as > 300 nM, the Ki [11] is reported as 21 nM and the Ki [12] is reported as 21 nM.
For `c1ccc(COc2cccc(-c3cn(C4CN5CCC4CC5)nn3)c2)cc1` (racemic), the Ki [1] was 668 nM, the Ki [2] was 91.3 nM and the Ki [5] was 7.57 nM. For the same molecule, the Ratio [6] was 88 and the Ratio [9] was 7.3.
In the case of `FCCOc1cccc(-c2cn([C@@H]3CN4CCC3CC4)nn2)c1`, the Ki [1] is reported as 1260 nM, the Ki [2] is reported as 74.9 nM and the Ki [5] is reported as 11.8 nM. It also gave a Ratio [6] of 107 and a Ratio [9] of 17.
Work on `FCCOc1cccc(-c2cn([C@H]3CN4CCC3CC4)nn2)c1` yielded a Ki [1] of 7050 nM, a Ki [2] of 38.8 nM and a Ki [5] of 558 nM. The Ratio [6] was 13, the Ratio [9] was 182 and the Ratio [13] was 14.
In the case of `Fc1ccc(COc2cccc(-c3cn(C4CN5CCC4CC5)nn3)c2)cc1` (racemic), the Ki [1] is reported as 1010 nM, the Ki [2] is reported as 127 nM and the Ki [5] is reported as 13.9 nM. It also gave a Ratio [6] of 73 and a Ratio [9] of 8.
With `Fc1ccc(-c2cn([C@@H]3CN4CCC3CC4)nn2)cc1` the Ki [1] was 515 nM, the Ki [2] was 175 nM and the inhibition [3] was 2 to 12%. For the same molecule, the inhibition [4] was “inactive”, the Ki [5] was 3.09 nM and the Ratio [6] was 167. The Ratio [9] was 3, the Activity [8] was “Active” and the Activity [14] was “Active”.
Molecule `Fc1cccc(-c2cn([C@H]3CN4CCC3CC4)nn2)c1` has a Ki [1] of 5200 nM, a Ki [2] of 117 nM and a Ki [5] of 362 nM. For the same molecule, the Ratio [6] was 14, the Ratio [9] was 44 and the Activity [8] was “Active”. The Activity [14] was “Active” and the Ratio [13] was 3.1.
`FCCCOc1cccc(-c2cn(C3CN4CCC3CC4)nn2)c1` (racemic) was tested, and the Ki [1] was 3890 nM, the Ki [2] was 74.6 nM and the Ki [5] was 44.4 nM. It also gave a Ratio [6] of 88 and a Ratio [9] of 52.
`Fc1ccc(-c2cn(C3CN4CCC3CC4)nn2)cc1` (racemic) showed a Ki [1] of 449 nM, a Ki [2] of 72.8 nM and a Ki [5] of 8.5 nM. It also gave a Ratio [6] of 53 and a Ratio [9] of 6.2.
`FCCCOc1cccc(-c2cn([C@@H]3CN4CCC3CC4)nn2)c1` was tested, and the Ki [1] was 1980 nM, the Ki [2] was 96.9 nM and the Ki [5] was 19.5 nM. It also gave a Ratio [6] of 102 and a Ratio [9] of 20.
